The structures appear in SMILES notation.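 Following 48 hours of exposure in 96-well plates, responses at five concentrations were used to interpolate endpoints linearly. Abbreviation: GI50, concentration required for 50% inhibition of growth. TGI: total growth inhibition.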

One may read the TGI as the concentration at which net growth stops. Low readings indicate greater sensitivity of the cells, high ones lower sensitivity of the cells. In general, GI50 refers to the concentration giving 50% growth inhibition.

The first assay has as its system OVCAR-4 ovarian. The assay can be described thus: DTP human tumour cell line panel, 48 h.
Consider `CCCCCCN(CCCCCC)C(=O)Cc1c2n(c3ccccc13)Cc1ccccc1-2`, for which the TGI was more than 100 µM.

With `CC(=O)[C@@]12O[C@@H]1CC1C3CCC4=CC(O)CCC4(C)C3CCC12C` (some centres not stated), the GI50 was 23.2 µM and the TGI is more than 100 µM.

Compound `C/C(=N\NC(=S)NC(CCC(=O)O)C(=O)O)c1ccccn1` (configuration not stated) registered a TGI of more than 100 µM.

`Brc1ccccc1C1SCc2nc3ccccc3n21` (configuration not stated) had a TGI of 75.9 µM.

`C=C(Br)C(C)(Br)CCC(Br)C(C)(C)Cl` (configuration not stated): the TGI was found to be 34.4 µM.

As to `CCc1cc(Cc2cc(CC)c(NC(=O)C(=O)Cc3ccccn3)c(CC)c2Cl)c(Cl)c(CC)c1NC(=O)C(=O)Cc1ccccn1`, the TGI is more than 100 µM.

For the compound `CC(C)OP(=O)(OC(C)C)C(=NCCN=C(NNc1ccc([N+](=O)[O-])cc1)P(=O)(OC(C)C)OC(C)C)NNc1ccc([N+](=O)[O-])cc1`, the TGI was more than 100 µM.

The compound `C#CC1(O)CCC2C3CCc4cc(Oc5nc(F)nc(-c6c7ccccc7c7sc8ccccc8n67)n5)ccc4C3CC[C@@]21C` (some centres not stated) displayed a TGI of more than 100 µM.

`Clc1ccc(C(c2ccc(Cl)cc2)c2ccccn2)cc1` displayed a TGI of 70.2 µM.

`CC(C)(C)OC(=O)N[C@H]1CC2(C=C(Cl)C(=O)C(Cl)=C2)OC1=O` showed a concentration for total growth inhibition (TGI) of 32.5 µM.

The compound `O=c1cc(-c2ccccc2)oc2cc(OCCCOc3ccc4c(=O)cc(-c5ccccc5)oc4c3)ccc12` yielded a TGI of more than 100 µM.

For a further assay, the system named is HOP-92 NSCLC. Nature of the assay: DTP human tumour cell line panel, 48 h.
For `CN(C(=O)c1ccc(C(F)(F)F)cc1)c1ccc(Oc2ccc3c(c2)cc(C(=O)N2CCN(Cc4ccc(OC(F)F)cc4)CC2)n3C)nc1`, the GI50 is 3.02 µM and the TGI was more than 88.2 µM.

For `Cc1cc(-c2ccc3nc(C4CCOCC4)n(CCOC(F)(F)F)c3c2)cn(C)c1=O`, the GI50 was 0.182 µM and the TGI is 36.6 µM.

Turning to `Nc1ncnc2c1nnn2C1OC(CO)C(O)C1O` (configuration not stated), the TGI is 7 µM.

Consider `COc1cc(/C=C2\CN(S(=O)(=O)c3ccccc3)C/C(=C\c3cc(CN4CCCC4)c(O)c(OC)c3)C2=O)cc(CN2CCCC2)c1O`, for which the GI50 was 1.51 µM and the TGI was found to be 4.69 µM.

For `CN1CCN(CCCn2c(=O)c3sc4ncccc4c3n3nnc(-c4ccccc4)c23)CC1`, the GI50 was 5.8 µM and the TGI turned out to be 12.9 µM.

`CC(=O)OC1COC(n2ccc3cc(Br)c([N+](=O)[O-])cc32)C(OC(C)=O)C1OC(C)=O` (configuration not stated) had a TGI of 42 µM. This lies in the double-digit micromolar range.

In turn, `NC1(C(=O)OCc2ccccc2)CCCC1` had a TGI of 38.4 µM.

As to `O=C(/C=C/c1ccc(Cl)cc1)c1ccc(Nc2ccnc3cc(Cl)ccc23)cc1`, the GI50 is more than 40.6 µM and the TGI was more than 100 µM.

`Cn1cnc([N+](=O)[O-])c1Sc1nc2ccccc2[nH]1`: the TGI amounted to 40.8 µM.

Compound `N#CC(C#N)=CNC(N)=S` had a TGI of more than 100 µM.

As for `COc1cc2c(c(OC)c1OC)-c1ccc(OC)c(=O)cc1C(NC(=O)c1ccc(N=[N+]=[N-])cc1)CC2` (configuration not stated), the TGI was determined as 18.9 µM.

In the case of `CCCCCCCCC/C=C1\CCC(CN2CCOCC2)C1=O` (configuration not stated), the TGI was 7.4 µM.

As to `CCCCCCN(CCCCCC)C(=O)Cc1c2n(c3ccccc13)Cc1ccccc1-2`, the TGI worked out at 79.7 µM.

`C/C(=N\NC(=S)NC(CCC(=O)O)C(=O)O)c1ccccn1` (configuration not stated) had a TGI of more than 100 µM.

`Brc1ccccc1C1SCc2nc3ccccc3n21` (configuration not stated): the TGI was found to be 26.8 µM.

On to `C=C(Br)C(C)(Br)CCC(Br)C(C)(C)Cl` (configuration not stated), for which the TGI is 30.2 µM.

Compound `CCc1cc(Cc2cc(CC)c(NC(=O)C(=O)Cc3ccccn3)c(CC)c2Cl)c(Cl)c(CC)c1NC(=O)C(=O)Cc1ccccn1` had a TGI of more than 100 µM.

As to `CC(C)OP(=O)(OC(C)C)C(=NCCN=C(NNc1ccc([N+](=O)[O-])cc1)P(=O)(OC(C)C)OC(C)C)NNc1ccc([N+](=O)[O-])cc1`, the TGI worked out at 8.82 µM. This lies in the single-digit micromolar range.

As to `C#CC1(O)CCC2C3CCc4cc(Oc5nc(F)nc(-c6c7ccccc7c7sc8ccccc8n67)n5)ccc4C3CC[C@@]21C` (some centres not stated), the TGI is more than 100 µM.

As to `Clc1ccc(C(c2ccc(Cl)cc2)c2ccccn2)cc1`, the TGI was found to be 30.1 µM.

Turning to `CC(C)(C)OC(=O)N[C@H]1CC2(C=C(Cl)C(=O)C(Cl)=C2)OC1=O`, the TGI worked out at 31.7 µM.

Compound `O=c1cc(-c2ccccc2)oc2cc(OCCCOc3ccc4c(=O)cc(-c5ccccc5)oc4c3)ccc12` registered a TGI of more than 100 µM.

Another assay deals with SNB-75 CNS. Nature of the assay: DTP human tumour cell line panel, 48 h.
For `CN(C(=O)c1ccc(C(F)(F)F)cc1)c1ccc(Oc2ccc3c(c2)cc(C(=O)N2CCN(Cc4ccc(OC(F)F)cc4)CC2)n3C)nc1`, the GI50 was 11.7 µM and the TGI is more than 84 µM.

Regarding `Cc1cc(-c2ccc3nc(C4CCOCC4)n(CCOC(F)(F)F)c3c2)cn(C)c1=O`, the concentration for total growth inhibition (TGI) was determined as 5.97 µM.

Regarding `Nc1ncnc2c1nnn2C1OC(CO)C(O)C1O` (configuration not stated), the TGI turned out to be 16.9 µM. This TGI lies about 2.8-fold higher than the previous one.

Consider `COc1cc(/C=C2\CN(S(=O)(=O)c3ccccc3)C/C(=C\c3cc(CN4CCCC4)c(O)c(OC)c3)C2=O)cc(CN2CCCC2)c1O`, for which the GI50 was 1.27 µM and the TGI was 2.71 µM.

As for `CN1CCN(CCCn2c(=O)c3sc4ncccc4c3n3nnc(-c4ccccc4)c23)CC1`, the GI50 was 6.82 µM and the TGI amounted to 13.3 µM.

`CC(=O)OC1COC(n2ccc3cc(Br)c([N+](=O)[O-])cc32)C(OC(C)=O)C1OC(C)=O` (configuration not stated) came in with a TGI of 75.2 µM.

`NC1(C(=O)OCc2ccccc2)CCCC1` returned a TGI of 35.1 µM. This TGI is about 2.1-fold lower than that of the compound before.

For the compound `O=C(/C=C/c1ccc(Cl)cc1)c1ccc(Nc2ccnc3cc(Cl)ccc23)cc1`, the GI50 was more than 100 µM and the TGI was more than 100 µM.

In turn, `Cn1cnc([N+](=O)[O-])c1Sc1nc2ccccc2[nH]1` gave a total growth inhibition concentration (TGI) of 49.9 µM. This lies in the double-digit micromolar range.

Take `N#CC(C#N)=CNC(N)=S`: the TGI is more than 100 µM.

Turning to `COc1cc2c(c(OC)c1OC)-c1ccc(OC)c(=O)cc1C(NC(=O)c1ccc(N=[N+]=[N-])cc1)CC2` (configuration not stated), the TGI was more than 90.8 µM.

On to `CCCCCCCCC/C=C1\CCC(CN2CCOCC2)C1=O` (configuration not stated), for which the TGI worked out at 16 µM.

Consider `CCCCCCN(CCCCCC)C(=O)Cc1c2n(c3ccccc13)Cc1ccccc1-2`, for which the TGI was more than 100 µM.

Regarding `CC(=O)[C@@]12O[C@@H]1CC1C3CCC4=CC(O)CCC4(C)C3CCC12C` (some centres not stated), the GI50 is 18.7 µM and the concentration for total growth inhibition (TGI) stood at 50.8 µM.

On to `C/C(=N\NC(=S)NC(CCC(=O)O)C(=O)O)c1ccccn1` (configuration not stated), for which the TGI was more than 100 µM.

`Brc1ccccc1C1SCc2nc3ccccc3n21` (configuration not stated) had a TGI of 47.1 µM. That is a double-digit micromolar value.

On to `C=C(Br)C(C)(Br)CCC(Br)C(C)(C)Cl` (configuration not stated), for which the TGI amounted to 33.9 µM.

`CCc1cc(Cc2cc(CC)c(NC(=O)C(=O)Cc3ccccn3)c(CC)c2Cl)c(Cl)c(CC)c1NC(=O)C(=O)Cc1ccccn1` gave a TGI of more than 100 µM.

`CC(C)OP(=O)(OC(C)C)C(=NCCN=C(NNc1ccc([N+](=O)[O-])cc1)P(=O)(OC(C)C)OC(C)C)NNc1ccc([N+](=O)[O-])cc1` displayed a TGI of more than 100 µM.

Turning to `C#CC1(O)CCC2C3CCc4cc(Oc5nc(F)nc(-c6c7ccccc7c7sc8ccccc8n67)n5)ccc4C3CC[C@@]21C` (some centres not stated), the TGI turned out to be 89.3 µM.

With `Clc1ccc(C(c2ccc(Cl)cc2)c2ccccn2)cc1`, the TGI was more than 100 µM.

`CC(C)(C)OC(=O)N[C@H]1CC2(C=C(Cl)C(=O)C(Cl)=C2)OC1=O` yielded a TGI of 41.1 µM.

As for `O=c1cc(-c2ccccc2)oc2cc(OCCCOc3ccc4c(=O)cc(-c5ccccc5)oc4c3)ccc12`, the total growth inhibition concentration (TGI) is more than 100 µM.

For the origin of these results see PubChem BioAssay (NCI).
